Measured values published in ChEMBL document CHEMBL2086390, “Design, synthesis and structure-activity relationships of novel benzoxazolone derivatives as 18 kDa translocator protein (TSPO) ligands” (Bioorg Med Chem, 2012).
In brackets after ≈: the same amount, converted by molar mass.

Columns and labels:
[1] = Tmax in rat at 10 mg/kg, po; assay type: ADME, organism-based; design: dose 10 mg/kg, route oral; conditions: in vivo
[2] = Ratio of AUC in brain to AUC in plasma of rat at 10 mg/kg, po; assay type: ADME, organism-based; design: dose 10 mg/kg, route oral; conditions: brain and plasma
[3] = Oral bioavailability in rat at 10 mg/kg; assay type: ADME, organism-based; conditions: in vivo
[4] = AUC in rat at 10 mg/kg, po; assay type: ADME, organism-based; design: dose 10 mg/kg, route oral; conditions: plasma
Rattus norvegicus = assay: AUC in rat at 1 mg/kg, iv; assay type: ADME, organism-based, Plasma; design: dose 1 mg/kg, route intravenous; conditions: in vivo
[5] = Cmax in rat at 10 mg/kg, po; assay type: ADME, organism-based; design: dose 10 mg/kg, route oral; conditions: in vivo
[6] = Volume of distribution at steady state in rat at 1 mg/kg, iv; assay type: ADME, organism-based; design: dose 1 mg/kg, route intravenous; conditions: in vivo, read-out: Vdss
[7] = Aqueous solubility of the compound at pH 7.4; assay type: physicochemical; conditions: aqueous solution
[8] = Aqueous solubility of the compound at pH 2.5; assay type: physicochemical; conditions: aqueous solution

Q: Which Tmax [1] does the source give for `CN(C(=O)Cn1c(=O)oc2ccc(-c3cccnc3)cc21)c1ccccc1.Cl` here?
A: Its Tmax is 1 h.

Q: And the Kp [2]?
A: The Kp was 0.63.

Q: And the bioavailability [3]?
A: The bioavailability was 13.9%.

Q: What about the AUC [4] of the same compound?
A: The AUC was 8370 ng·h/mL.

Q: And the AUC (Rattus norvegicus)?
A: Its AUC is 6042 ng·h/mL.

Q: And the Cmax [5]?
A: The Cmax was 50.4 ng/mL.

Q: What about the Vd [6] of the same compound?
A: The Vd was 4.4 L/kg.

Q: With `CN(C(=O)Cn1c(=O)oc2ccc(-c3ccccc3)cc21)c1ccccc1` as the compound, how does the solubility [7] read?
A: The solubility was < 1 µg/mL.

Q: Which solubility [8] does the source give for `CN(C(=O)Cn1c(=O)oc2ccc(-c3cccnc3)cc21)c1ccccc1` here?
A: The solubility was 440 µg/mL (≈ 1220 µM).

Q: For `CN(C(=O)Cn1c(=O)oc2ccc(-c3ccccc3)cc21)c1cccnc1`, which solubility [7] is on record?
A: Its solubility is 45 µg/mL (≈ 125 µM).
